One assay concerns the target HIV-1 protease Mutant 8 (Human immunodeficiency virus type 1, UniProt P04585). Kind of assay: Ki against HIV-1 protease Mutant 8. Particulars: Mutant 8. The class given is biochemical.
For a further assay, the system named is HIV-1 isolates, Mutant 9. Kind of assay: In vitro drug sensitivity of HIV-1 laboratory isolates, Mutant 9. It counts as cell-based. How it is done:
(§1) In Vitro Drug Sensitivity of HIV-1 Laboratory Isolates to PIs
(§2) The sensitivities of HIV-1 isolates against compounds of the invention were determined as previously described with minor modifications (Shiraska et al., Proc. Natl. Acad. Sci. USA, 92, 2398-2402 (1995)).

In another assay the test system is HIV-1 isolates, Mutant 8. Briefly: In vitro drug sensitivity of HIV-1 laboratory isolates, Mutant 8. It counts as cell-based. How it is done:
as §1, §2

Another assay has as its target HIV-1 protease Mutant 9 (Human immunodeficiency virus type 1, UniProt P04585). Kind of assay: Ki against HIV-1 protease Mutant 9. Conditions: Mutant 9. The class given is biochemical.
The subject of a further assay is HIV-1 isolates, WT. Kind of assay: In vitro drug sensitivity of HIV-1 laboratory isolates, WT. It counts as cell-based. How it is done:
as §1, §2

Another assay deals with T1, wild type HIV-1 protease (Human immunodeficiency virus type 1 group M subtype B, UniProt P04585).
T1 construct: over 45 of the 99 amino acids of the HIV protease monomer
Briefly: Ki against wild type (WT) HIV-1 protease. It counts as biochemical. Particulars: WT.

The mark [1] stands for this setting: Human immunodeficiency virus 1, read-out: IC50 Mutant 9.
The mark [2] stands for this setting: Human immunodeficiency virus 1, read-out: IC50 Mutant 8.
Where [3] appears, read: Mutant 9, read-out: IC50 Mutant 9.
Where [4] appears, read: Mutant 8, read-out: IC50 Mutant 8.

Read-outs that look alike come from different tables or passages of the source.

Usually Ki stands for the dissociation constant of the complex between target and ligand, obtained from inhibition or displacement. High values mean weaker binding, low ones tighter binding. A word on the IC50: it is the concentration at which inhibition is half-maximal. Consider `CC(C)CN(C[C@@H](O)[C@H](Cc1ccccc1)NC(=O)OC1CO[C@H]2OCC[C@@H]12)S(=O)(=O)c1ccc2c(c1)CCO2` (some centres unmarked), for which the inhibition constant (Ki) was < 0.3 nM on HIV-1 protease Mutant 8, 1.5 nM on HIV-1 protease Mutant 9 and < 0.1 nM on wild type HIV-1 protease. The 50% inhibitory concentration (IC50) with HIV-1 isolates, Mutant 9 (setting [1]) stood at 157 nM; with HIV-1 isolates, Mutant 8 (setting [2]) it was 13 nM; in the assay with HIV-1 isolates, WT (Human immunodeficiency virus 1), 1 nM.
As for `CC(C)CN(C[C@@H](O)[C@H](Cc1ccccc1)NC(=O)OC1CO[C@H]2OCC[C@@H]12)S(=O)(=O)c1ccc2c(c1)C(C)CO2` (some centres unmarked), the IC50 stood at 900 nM in the assay on HIV-1 isolates, Mutant 9 (setting [1]); 56 nM with HIV-1 isolates, Mutant 8 (setting [2]); 1.5 nM in the assay on HIV-1 isolates, WT (Human immunodeficiency virus 1). Besides, the inhibition constant Ki at HIV-1 protease Mutant 9 is 7.5 nM; on wild type HIV-1 protease, < 0.1 nM.
In the case of `CC(C)CN(C[C@@H](O)[C@H](Cc1ccccc1)NC(=O)OC1CO[C@H]2OCC[C@@H]12)S(=O)(=O)c1ccc2c(c1)CC(CO)O2` (some centres unmarked), the results for the inhibition constant Ki on HIV-1 protease Mutant 8, on HIV-1 protease Mutant 9 and on wild type HIV-1 protease were 0.38 nM, 9 nM and < 0.1 nM, respectively. Further, the IC50 in the assay with HIV-1 isolates, Mutant 9 (setting [1]) turned out to be 500 nM; in the assay with HIV-1 isolates, Mutant 8 (setting [2]) it was 47 nM; with HIV-1 isolates, WT (Human immunodeficiency virus 1) it was 5.4 nM.
Turning to `CC(C)CN(C[C@@H](O)[C@H](Cc1ccccc1)NC(=O)OC1COC2OCCC12)S(=O)(=O)c1ccc2c(c1)C(=O)CCO2` (some centres unmarked), the inhibition constant Ki at HIV-1 protease Mutant 8 is 0.42 nM; at HIV-1 protease Mutant 9, 4.9 nM; at wild type HIV-1 protease, < 0.1 nM. For the same compound, the concentration for half-maximal inhibition (IC50) in the assay with HIV-1 isolates, Mutant 9 (setting [1]) came out at 625 nM; in the assay on HIV-1 isolates, Mutant 8 (setting [2]), 42 nM; in the assay on HIV-1 isolates, WT (Human immunodeficiency virus 1), 3.5 nM.
Regarding `CC(C)CN(CC(O)C(Cc1ccccc1)NC(=O)OC1COC2OCCC12)S(=O)(=O)c1ccc2occc2c1` (centres unmarked) [Compound 101, {3-[(Benzofuran-5-sulfonyl)-isobutyl-amino]-1-benzyl-2-hydroxy-propyl}-carbamic acid hexahydro-furo[2,3-b]furan-3-yl ester], the Ki was < 0.3 nM at HIV-1 protease Mutant 8, 0.5 nM at HIV-1 protease Mutant 9 and < 0.1 nM on wild type HIV-1 protease. In addition, the concentration for half-maximal inhibition (IC50) in the assay on HIV-1 isolates, Mutant 9 (setting [1]) came out at 120 nM; in the assay on HIV-1 isolates, Mutant 8 (setting [2]) it was 16 nM; in the assay with HIV-1 isolates, WT (Human immunodeficiency virus 1), 1.6 nM.
Turning to `Cc1cc2cc(S(=O)(=O)N(CC(C)C)CC(O)C(Cc3ccccc3)NC(=O)OC3COC4OCCC34)ccc2o1` (centres unmarked) [Compound 102], the inhibition constant Ki at HIV-1 protease Mutant 8 is < 0.3 nM; at HIV-1 protease Mutant 9 it was 0.96 nM; on wild type HIV-1 protease, < 0.1 nM. Moreover, the IC50 in the assay on HIV-1 isolates, Mutant 9 (setting [1]) was > 400 nM; in the assay with HIV-1 isolates, Mutant 8 (setting [2]), 90 nM; with HIV-1 isolates, WT (Human immunodeficiency virus 1), 3.7 nM.
For `Cc1coc2ccc(S(=O)(=O)N(CC(C)C)CC(O)C(Cc3ccccc3)NC(=O)OC3COC4OCCC34)cc12` (centres unmarked) [Compound 103], the Ki on HIV-1 protease Mutant 8 was < 0.3 nM; at HIV-1 protease Mutant 9, 0.48 nM; at wild type HIV-1 protease it was < 0.1 nM. The IC50 came to 300 nM with HIV-1 isolates, Mutant 9 (setting [1]); 35 nM with HIV-1 isolates, Mutant 8 (setting [2]); 3.7 nM in the assay on HIV-1 isolates, WT (Human immunodeficiency virus 1).
Regarding `CC(C)CN(C[C@@H](O)[C@H](Cc1ccccc1)NC(=O)OC1COC2OCCC12)S(=O)(=O)c1ccc2oc(CBr)cc2c1` (some centres unmarked) [Compound 104], the Ki at HIV-1 protease Mutant 8 was < 0.3 nM; at HIV-1 protease Mutant 9, 0.41 nM; on wild type HIV-1 protease, < 0.1 nM. Moreover, the IC50 with HIV-1 isolates, Mutant 9 (setting [3]) stood at 230 nM; with HIV-1 isolates, Mutant 8 (setting [4]), 41 nM; with HIV-1 isolates, WT (WT) it was 8 nM.
`CC(C)CN(CC(O)C(Cc1ccccc1)NC(=O)OC1COC2OCCC12)S(=O)(=O)c1ccc2oc(CN)cc2c1` (centres unmarked) [Compound 105]: the Ki was < 0.3 nM at HIV-1 protease Mutant 8, 1.9 nM on HIV-1 protease Mutant 9 and < 0.1 nM on wild type HIV-1 protease. Besides, the IC50 was 220 nM in the assay on HIV-1 isolates, Mutant 9 (setting [1]); 30 nM in the assay with HIV-1 isolates, Mutant 8 (setting [2]); 7 nM in the assay on HIV-1 isolates, WT (Human immunodeficiency virus 1).
For the compound `CC(=O)NCc1coc2ccc(S(=O)(=O)N(CC(C)C)C[C@@H](O)[C@H](Cc3ccccc3)NC(=O)OC3COC4OCCC34)cc12` (some centres unmarked) [Compound 107], the inhibition constant (Ki) is < 0.3 nM on HIV-1 protease Mutant 8, 0.26 nM on HIV-1 protease Mutant 9 and < 0.1 nM at wild type HIV-1 protease. In addition, the IC50 was found to be 42 nM in the assay with HIV-1 isolates, Mutant 9 (setting [3]); 28 nM in the assay on HIV-1 isolates, Mutant 8 (setting [4]); 15 nM in the assay with HIV-1 isolates, WT (WT).
With `CC(C)CN(C[C@@H](O)[C@H](Cc1ccccc1)NC(=O)OC1COC2OCCC12)S(=O)(=O)c1ccc2occ(CN3CCOCC3)c2c1` (some centres unmarked) [Compound 108], the inhibition constant (Ki) on HIV-1 protease Mutant 8 was < 0.3 nM; at HIV-1 protease Mutant 9 it was 1.5 nM; at wild type HIV-1 protease, < 0.1 nM. In addition, the IC50 was 420 nM in the assay on HIV-1 isolates, Mutant 9 (setting [3]); 38 nM with HIV-1 isolates, Mutant 8 (setting [4]); 1.5 nM with HIV-1 isolates, WT (WT).
As for `CC(C)CN(C[C@@H](O)[C@H](Cc1ccccc1)NC(=O)OC1COC2OCCC12)S(=O)(=O)c1ccc2occ(CN3CCCCC3)c2c1` (some centres unmarked) [Compound 109], the Ki was < 0.3 nM at HIV-1 protease Mutant 8, 2.8 nM on HIV-1 protease Mutant 9 and < 0.1 nM at wild type HIV-1 protease. In addition, the concentration for half-maximal inhibition (IC50) was > 400 nM with HIV-1 isolates, Mutant 9 (setting [3]); 30 nM in the assay with HIV-1 isolates, Mutant 8 (setting [4]); 2 nM in the assay on HIV-1 isolates, WT (WT).

(Values after patent publication US20100056596A1, “RESISTANCE-REPELLENT RETROVIRAL PROTEASE INHIBITORS” (Sequoia Pharmaceuticals, priority 2004, published 2010).)
